Measurements from US20240228469A1, “PCSK9 INHIBITORS AND METHODS OF USE THEREOF” (AstraZeneca AB, priority 2022, published 2024).
pEC50, pIC50, pKd: −log10 of the molar value.

What was measured:
PCSK9 [1] = target: T1, PCSK9 (Homo sapiens, UniProt Q8NBP7, G670E/V474I); assay: Assay 3 PCSK9 LDL-C uptake assay in HepG2 cells; type: cell-based; parameters: TEV site (C); His6 (C); host or cells: added to HepG2 (ATCC #HB-8065); settings: 125 nM PCSK9, pHrodo Red-LDL, read-out: Assay 3 LDL uptake potency
In short: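 HepG2 cells were plated for 24 h, then exposed for 24 h at 37 °C to compounds (half-log series, 10 μM top) with 125 nM exogenous PCSK9. pHrodo Red-LDL ([…]) uptake was then imaged by fluorescence at 4 h and 24 h. Signal was normalized as % effect between DMSO and 100 nM evolocumab, with a four-parameter logistic fit.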

PCSK9 [2] = target: PCSK9 (Homo sapiens, UniProt Q8NBP7); assay: Assay 2 Biophysical human PCSK9 assay (SPR, Biacore); type: binding; parameters: biotinylated human PCSK9 (31-692)-Avi-His6; His6 (C); settings: single-cycle kinetics, 30° C., geometric mean, read-out: Assay 2 (PCSK9 BIAcore DBA Cr) GMean Kd
Procedure: The SPR binding experiments were performed on a Biacore S200 optical biosensor unit at 30° C. A Series S Sensor Chip SA that is designed to bind biotinylated molecules for interaction analysis in Biacore systems was equilibrated at room temperature prior to use. The running buffer for protein tethering and subsequent ligand binding experiments was 10 mM HEPES pH 7.4, 150 mM NaCl, 0.05% (v/v) Tween 20 pH 7.4.
For the surface tethering of PCSK9, biotinylated human PCSK9 (31-692)-Avi-His6 at a concentration of 0.5 mg/mL was used. Prior to the surface tethering, the surface was exposed to a solution of 50 mM NaOH, 500 mM NaCl via 3 consecutive injections of this solution with a contact time of 60 s and a flowrate of 10 μL min^−1 to remove non-conjugated streptavidin. The PCSK9 protein was diluted to a concentration of 20 μg/mL using running buffer and injected with a contact time of 180-300 s and a flowrate of 10 μL min^−1 over a single flow channel (typically flow channel 2 or flow channel 4) with the aim to achieve protein capture levels of >5000 response units (RU). Remaining biotin binding sites were blocked via 2 consecutive injections of a 10 μM D-biotin solution in running buffer with a contact time of 60 s and a flowrate of 10 μL min^−1 over all flow-channels. Flow-channels 1 and 3 typically served as a reference surface throughout the subsequent binding experiments.
The binding experiments were all performed at a flow rate of 30 PL min^−1 and by employing the method of single-cycle kinetics. This approach involves the sequential injection of a compound concentration series without regeneration steps. A contact time between 90-150 s was selected, which was followed by a 40 min dissociation phase to allow for a proper estimation of the dissociation rate constant. Test compounds were delivered in DMSO at a concentration of 10 mM and a digital dispenser HP D300 was used to set up the compound concentration series using 6 concentrations. The tested concentrations have been 30, 100, 300, 1000, 3000 and 10000 nM. Prior to injecting any compound, the surfaces were equilibrated by injecting running buffer over them in three separate pulses. The data collection rate was set to 10 Hz.
The raw sensorgrams of the compound injections were first subjected to reference subtraction (subtracting the signal from flow channel 1 and/or 3 from the signal from channels 2 and/or 4 respectively) and then blank subtraction (subtracting the signal from injecting DMSO controls from the reference subtracted data). The resulting double-referenced sensorgrams were then fitted using a 1:1 binding interaction model using the manufactures software package to extract kinetic- and affinity data. Active compounds have been defined by creating a detectable binding signal at the highest compound concentration ([…]) of 3 RUs. Kinetic- and affinity data on active compounds are only provided for those compounds where the binding signal at the highest compound concentration ([…]) is 50% of the theoretical maximum binding signal for a 1:1 binding interaction (Rmax, typically between 15-20 RUs) in order to enable a proper fitting of the data.

PCSK9 [3] = target: T1, PCSK9; assay: biochemical

Chain of PCSK9 (Homo sapiens, UniProt Q8NBP7) (Q8NBP7 31-692): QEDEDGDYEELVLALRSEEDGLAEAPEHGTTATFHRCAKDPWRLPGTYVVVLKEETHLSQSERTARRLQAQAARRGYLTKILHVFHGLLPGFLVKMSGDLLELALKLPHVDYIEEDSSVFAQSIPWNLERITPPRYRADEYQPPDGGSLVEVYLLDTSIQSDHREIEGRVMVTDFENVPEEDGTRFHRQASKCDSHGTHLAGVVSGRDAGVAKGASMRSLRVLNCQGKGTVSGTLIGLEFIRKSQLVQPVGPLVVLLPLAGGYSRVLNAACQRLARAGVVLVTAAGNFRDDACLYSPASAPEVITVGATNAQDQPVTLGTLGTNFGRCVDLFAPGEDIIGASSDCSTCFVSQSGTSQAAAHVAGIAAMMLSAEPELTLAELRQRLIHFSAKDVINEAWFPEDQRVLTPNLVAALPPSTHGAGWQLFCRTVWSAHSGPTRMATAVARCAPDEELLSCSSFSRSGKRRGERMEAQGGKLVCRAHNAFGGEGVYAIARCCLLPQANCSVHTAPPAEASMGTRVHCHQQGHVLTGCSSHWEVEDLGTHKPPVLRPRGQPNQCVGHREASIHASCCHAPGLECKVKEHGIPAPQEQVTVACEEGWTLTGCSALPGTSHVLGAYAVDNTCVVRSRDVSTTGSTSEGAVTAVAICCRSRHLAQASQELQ
T1 sequence (Q8NBP7 with tags, fused parts or gaps V474I/G670E): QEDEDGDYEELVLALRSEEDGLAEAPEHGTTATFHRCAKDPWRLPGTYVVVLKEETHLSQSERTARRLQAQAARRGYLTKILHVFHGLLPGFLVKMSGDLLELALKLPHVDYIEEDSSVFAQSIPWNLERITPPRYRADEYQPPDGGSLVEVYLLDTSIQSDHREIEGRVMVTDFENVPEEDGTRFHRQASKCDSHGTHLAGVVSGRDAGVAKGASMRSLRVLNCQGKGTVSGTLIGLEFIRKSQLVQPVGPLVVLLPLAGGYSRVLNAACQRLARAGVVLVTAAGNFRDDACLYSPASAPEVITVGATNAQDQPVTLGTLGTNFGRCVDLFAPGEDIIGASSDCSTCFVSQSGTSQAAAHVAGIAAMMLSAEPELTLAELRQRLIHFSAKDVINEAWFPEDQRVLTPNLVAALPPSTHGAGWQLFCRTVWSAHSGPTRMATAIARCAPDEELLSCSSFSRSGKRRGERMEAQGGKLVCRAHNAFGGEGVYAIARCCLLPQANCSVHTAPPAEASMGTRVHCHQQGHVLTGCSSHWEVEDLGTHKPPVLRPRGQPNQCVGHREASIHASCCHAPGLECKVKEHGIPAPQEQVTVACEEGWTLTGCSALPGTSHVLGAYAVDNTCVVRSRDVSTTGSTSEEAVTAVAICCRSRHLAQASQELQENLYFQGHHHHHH

**Q.** With `C#CCNC(=O)c1cnc(N[C@H]2CC[C@H](Nc3ccc(-n4ccccc4=O)cn3)C2)nn1` [Example 69, 3-(((1S,3S)-3-((2-Oxo-2H-[1,3′-bipyridin]-6′-yl)amino)cyclopentyl)amino)-N-(prop-2-yn-1-yl)-1,2,4-triazine-6-carboxamide] as the compound, how does the pEC50 (PCSK9 [1]) read?
**A.** The pEC50 was 6.70.

**Q.** What about the pKd (PCSK9 [2]) of the same compound?
**A.** The pKd was 7.92.

**Q.** And the pIC50 (PCSK9 [3])?
**A.** The pIC50 was 7.70.

**Q.** With `Cc1cnc(N[C@H]2CC[C@H](Nc3ccc(-n4cccc(Cl)c4=O)cn3)C2)nn1` [Example 129, 3-Chloro-6′-(((1S,3S)-3-((6-methyl-1,2,4-triazin-3-yl)amino)cyclopentyl)amino)-2H-[1,3′-bipyridin]-2-one] as the compound, how does the pEC50 (PCSK9 [1]) read?
**A.** The pEC50 was 7.00.

**Q.** What about the pKd (PCSK9 [2]) of the same compound?
**A.** Its pKd is 8.89.

**Q.** What about the pIC50 (PCSK9 [3]) of the same compound?
**A.** Its pIC50 is 8.80.

**Q.** Which results are given for `Cn1c(=O)n(-c2ccc(N[C@H]3CC[C@H](Nc4ncc(C5CC5)nn4)C3)nc2)c2ccc(C(=O)O)cc21` [Example 121, 1-(6-(((1S,3S)-3-((6-Cyclopropyl-1,2,4-triazin-3-yl)amino)cyclopentyl)amino)pyridin-3-yl)-3-methyl-2-oxo-2,3-dihydro-1H-benzo[d]imidazole-5-carboxylic acid]?
**A.** pEC50 (PCSK9 [1]): 7.00; pKd (PCSK9 [2]): 8.80; pIC50 (PCSK9 [3]): 9.00

**Q.** How did the pEC50 (PCSK9 [1]) turn out when `Cc1cccn(-c2ccc(N[C@H]3CC[C@H](Nc4ncc(C5CC5)nn4)C3)nc2)c1=O` [Example 66, 6′-(((1S,3S)-3-((6-Cyclopropyl-1,2,4-triazin-3-yl)amino)cyclopentyl)amino)-3-methyl-2H-[1,3′-bipyridin]-2-one] was run?
**A.** The pEC50 was 7.00.

**Q.** And the pKd (PCSK9 [2])?
**A.** The pKd was 8.82.

**Q.** What about the pIC50 (PCSK9 [3]) of the same compound?
**A.** The pIC50 was 8.77.

**Q.** `CNC(=O)c1cnc(N[C@H]2CC[C@H](Nc3ccc(-n4ccccc4=O)cn3)C2)nn1` [Example 75, N-Methyl-3-(((1S,3S)-3-((2-oxo-2H-[1,3′-bipyridin]-6′-yl)amino)cyclopentyl)amino)-1,2,4-triazine-6-carboxamide] was tested. Which pEC50 (PCSK9 [1]) did it give?
**A.** The pEC50 was 6.15.

**Q.** What about the pKd (PCSK9 [2]) of the same compound?
**A.** The pKd was 7.80.

**Q.** What about the pIC50 (PCSK9 [3]) of the same compound?
**A.** Its pIC50 is 7.48.

**Q.** How did the pEC50 (PCSK9 [1]) turn out when `COc1cccn(-c2ccc(N[C@H]3CC[C@H](Nc4ncc(C)nn4)C3)nc2)c1=O` [Example 132, 3-Methoxy-6′-(((1S,3S)-3-((6-methyl-1,2,4-triazin-3-yl)amino)cyclopentyl)amino)-2H-[1,3′-bipyridin]-2-one] was run?
**A.** The pEC50 was 7.00.

**Q.** And the pKd (PCSK9 [2])?
**A.** The pKd was 8.82.

**Q.** What about the pIC50 (PCSK9 [3]) of the same compound?
**A.** Its pIC50 is 8.64.

**Q.** With `O=c1cccnn1-c1ccc(N[C@H]2CC[C@H](Nc3ncc(C4CC4)nn3)C2)nc1` [Example 118] as the compound, how does the pEC50 (PCSK9 [1]) read?
**A.** The pEC50 was 6.30.

**Q.** What about the pKd (PCSK9 [2]) of the same compound?
**A.** The pKd was 8.07.

**Q.** What about the pIC50 (PCSK9 [3]) of the same compound?
**A.** Its pIC50 is 8.13.

**Q.** How did the pEC50 (PCSK9 [1]) turn out when `CN1C(=O)CN(c2ccc(N[C@H]3CC[C@H](Nc4ncc(C5CC5)nn4)C3)nc2)C1=O` [Example 62, 1-(6-(((1S,3S)-3-((6-Cyclopropyl-1,2,4-triazin-3-yl)amino)cyclopentyl)amino)pyridin-3-yl)-3-methylimidazolidine-2,4-dione] was run?
**A.** Its pEC50 is 6.52.

**Q.** And the pKd (PCSK9 [2])?
**A.** The pKd was 8.37.

**Q.** And the pIC50 (PCSK9 [3])?
**A.** Its pIC50 is 8.19.

**Q.** `O=c1ccc(Cl)cn1-c1ccc(N[C@H]2CC[C@H](Nc3ncc(C4CC4)nn3)C2)nc1` [Example 112, 5-Chloro-6′-(((1S,3S)-3-((6-cyclopropyl-1,2,4-triazin-3-yl)amino)cyclopentyl)amino)-2H-[1,3′-bipyridin]-2-one] was tested. Which pEC50 (PCSK9 [1]) did it give?
**A.** The pEC50 was 6.70.

**Q.** What about the pKd (PCSK9 [2]) of the same compound?
**A.** Its pKd is 8.41.

**Q.** What about the pIC50 (PCSK9 [3]) of the same compound?
**A.** The pIC50 was 8.33.

**Q.** `Cc1cnc(N[C@H]2CC[C@H](Nc3ccc(-n4c(=O)n(C)c5ccc(C#N)cc54)cn3)C2)nn1` [Example 210, 1-Methyl-3-(6-(((1S,3S)-3-((6-methyl-1,2,4-triazin-3-yl)amino)cyclopentyl)amino)pyridin-3-yl)-2-oxo-2,3-dihydro-1H-benzo[d]imidazole-5-carbonitrile] was tested. Which pEC50 (PCSK9 [1]) did it give?
**A.** Its pEC50 is 7.00.

**Q.** And the pKd (PCSK9 [2])?
**A.** Its pKd is 9.22.

**Q.** And the pIC50 (PCSK9 [3])?
**A.** Its pIC50 is 9.05.

**Q.** What does the source list for `N#Cc1ccc(=O)n(-c2ccc(N[C@H]3CC[C@H](Nc4ncc(C5CC5)nn4)C3)nc2)c1` [Example 56, 6′-(((1S,3S)-3-((6-Cyclopropyl-1,2,4-triazin-3-yl)amino)cyclopentyl)amino)-2-oxo-2H-[1,3′-bipyridine]-5-carbonitrile]?
**A.** pEC50 (PCSK9 [1]): 6.52; pKd (PCSK9 [2]): 8.13; pIC50 (PCSK9 [3]): 8.05

**Q.** With `O=c1ccccn1-c1ccc(N[C@H]2CC[C@H](Nc3ncc(C4CC4)nn3)C2)nc1` [Example 50, 6′-(((1S,3S)-3-((6-Cyclopropyl-1,2,4-triazin-3-yl)amino)cyclopentyl)amino)-2H-[1,3′-bipyridin]-2-one] as the compound, how does the pEC50 (PCSK9 [1]) read?
**A.** Its pEC50 is 6.52.

**Q.** What about the pKd (PCSK9 [2]) of the same compound?
**A.** The pKd was 8.01.

**Q.** What about the pIC50 (PCSK9 [3]) of the same compound?
**A.** The pIC50 was 8.10.

**Q.** `Cc1cnc(N[C@H]2CC[C@H](Nc3ccc(-n4cccc(C)c4=O)cn3)C2)nn1` [Example 131, 3-Methyl-6′-(((1S,3S)-3-((6-methyl-1,2,4-triazin-3-yl)amino)cyclopentyl)amino)-2H-[1,3′-bipyridin]-2-one] was tested. Which pEC50 (PCSK9 [1]) did it give?
**A.** Its pEC50 is 7.00.

**Q.** And the pKd (PCSK9 [2])?
**A.** The pKd was 8.62.

**Q.** And the pIC50 (PCSK9 [3])?
**A.** Its pIC50 is 8.57.

**Q.** With `O=c1ccncn1-c1ccc(N[C@H]2CC[C@H](Nc3ncc(C4CC4)nn3)C2)nc1` [Example 114, 3-(6-(((1S,3S)-3-((6-Cyclopropyl-1,2,4-triazin-3-yl)amino)cyclopentyl)amino)pyridin-3-yl)pyrimidin-4(3H)-one] as the compound, how does the pEC50 (PCSK9 [1]) read?
**A.** The pEC50 was 6.52.

**Q.** And the pKd (PCSK9 [2])?
**A.** The pKd was 8.28.

**Q.** What about the pIC50 (PCSK9 [3]) of the same compound?
**A.** The pIC50 was 8.12.

**Q.** What does the source list for `Cn1c(=O)n(-c2ccc(N[C@H]3CC[C@H](Nc4ncc(C5CC5)nn4)C3)nc2)c2cc(C#N)ccc21` [Example 116, 3-(6-(((1S,3S)-3-((6-Cyclopropyl-1,2,4-triazin-3-yl)amino)cyclopentyl)amino)pyridin-3-yl)-1-methyl-2-oxo-2,3-dihydro-1H-benzo[d]imidazole-5-carbonitrile]?
**A.** pEC50 (PCSK9 [1]): 7.00; pKd (PCSK9 [2]): 9.52; pIC50 (PCSK9 [3]): 9.15
